Assays:
CK1α = target: T1, CK1α (Homo sapiens, UniProt P48729+Q96SW2); test: CK1α NanoBit Assay (HiBiT-tagged CSNK1A1 in HEK293 cells, luminescence); assay type: cell-based; conditions: 24 h
T1 construct: HEK293 clonal lines with CRISPR KI HiBiT tag on CSNK1A1; host or cells: HEK293 clonal line, CRISPR knock-in HiBiT at the CSNK1A1 locus, stably expressing LgBiT
Experimental: HEK293 clonal lines with CRISPR KI HiBiT tag on CSNK1A1 and stably expressing LgBiT protein were obtained from Promega (Madison, WI). Cells were plated at 5000 cells per well using Multiflo (BioTek) in 384-well white solid bottom plates (Corning, 3570BC) in 25 μl volume in DMEM media (DMEM, high glucose, HEPES, no phenol red (ThermoFisher Scientific, 21063029)) containing 10% FBS (Corning, 35-075-CV), 1% Penicillin/Streptomycin ((ThermoFisher Scientific, 15140-122), and 0.2% Endurazine (Nano-Glo Endurazine Live Cell Substrate (Promega, N2571)). Cells were incubated for 16 hours at 37° C., 5% CO2. Depending on experiment 25 or 75 nL of a compound at 10 mM were added into the plate using an Echo® 650 liquid handler (Labcyte) to achieve final concentration of 10 or 30 μM in wells. Cells were incubated at 37° C., 5% CO2 for 24 hours and then signal was read on a Pherastar FSX using “LUM plus” optic module.
Data analysis was performed in Scinamic (Scinamic, Cambridge, MA). Luminescence response (R) was calculated by the formula: response=100*(S−N)/(P−N) where S is the signal of the well, N and P the mean negative and positive control values respectively of the same plate. The luminescence response was then fitted in Scinamic using a 3-parameter agonist logistic fit (hillslope=1, EC50>0, top/bottom unconstrained).
DC50 data are reported in Table 2 for compounds in Table 1. In Table 2 below, According to the code, A represents a DC50 value of ≤0.1 μM, B represents a DC50 value >0.1 μM and ≤1 μM, C represents an DC50 value >1 μM.

CRBN/DDB1 = CRBN/DDB1 (Homo sapiens, UniProt Q96SW2); test: HTRF binding assay (displacement of Cy5-thalidomide probe from CRBN/DDB1); conditions: CRBN/DDB1 2.5 nM, Cy5-Thalidomide 100 nM, 30 min; geometric mean; read-out: HTRF_Thali_Disp_DR_geo_IC50
Excerpt: Binding of test compounds to CRBN/DDB1 was monitored in an HTRF assay using 1-[5-({2-[2-(2-{[2-(2,6-dioxopiperidin-3-yl)-1,3-dioxo-2,3-dihydro-1H-isoindol-4-yl]oxy}acetamido)ethoxy]ethyl}carbamoyl)pentyl]-3,3-dimethyl-2-[(1E,3E)-5-[(2E)-1,3,3-trimethyl-5-sulfo-2,3-dihydro-1H-indol-2-ylidene]penta-1,3-dien-1-yl]-3H-indol-1-ium-5-sulfonate as a fluorescent probe. In this assay, compounds displace the fluorescently labeled thalidomide-based probe bound to CRBN and fluorescence is monitored with increasing compound concentration. Assays were conducted in Greiner white 384 well HiBase plates (Cat. No 784075-25) in 10 μL total volume. A one pot detection solution of CRBN/DDB1 (2.5 nM), anti-His Terbium Cryptate Gold (1×, PerkinElmer Cat. #: 61HI2TLB), and Cy5-Thalidomide (100 nM, Tenova Cat.: T52461) was prepared in 20 mM HEPES, 20 mM NaCl, 0.2 mM TCEP, 0.2 mM EDTA, and 0.005% Tween20 was dispensed to each assay plate. Test compounds were stored in dry, ambient temperatures at 10 mM. A 10-point, 1:3 dilution series was prepared from 10 mM stock concentrations in Echo-compatible LDV plates. 10 nL of each compound dilution series was dispensed into assays wells using an Echo 650 (Labcyte inc. USA). 10 nL of 10 mM lenalidomide (Selleckchem Cat no. S1029) was transferred into the active-control wells for the assay and 10 nL of DMSO was transferred into the negative control wells. The assay was then allowed to incubate for 30 min at ambient temperature after transferring the test compounds. Plate measurements were taken on a Pherastar FSX (BMG Labtech, Germany) using the HTRF Red filter (Ex. 337 nm, em1: 620 nm, em2: 665 nm) (Flashes: 50, Integration time: 60-400 μs, Z-height: 10 mm, Ratio-multiplier: 10,000). Analysis, HTRF ratio and IC50 values were derived using KNIME analytics (KNIME Zurich) transformation and fitting within Collaborative Drug Discovery (Collaborative Drug Discovery USA) using a 4-parameter logistic fit. HTRF ratio calculation was performed using the following formula: […]
where em665 nm represents the measured emission at 665 nm upon excitation at 337 nm and em620 nm the measured emission at 620 nm upon excitation at 337 nm. The 4 parameter logistic fitting model was performed using the following formula: […]
where Y represents the HTRF ratio response (as defined previously), X the compound concentration in μM, Ymin the minimum response plateau, Ymax the maximum response plateau, IC50 the concentration of […] that gives a response half way between Ymin and Ymax and HillSlope the steepness of the family of curves. No fitting model constraints was applied on Ymin, or Ymax whilst IC50>0 and −0.5>HillSlope>−3 Cheng-Prusoff transformation
Ki values were derived from the geometric mean of the IC50 values using the Cheng-Prusoff transformation:
where [L] represents the concentration of fluorescent probe in […], Kd the affinity (binding constant) of the fluorescent probe in units of μM and IC50 the concentration of agonist that gives a response halfway between Ymin and Ymax (as described in 1.2.1)
Analysis and IC50 values were derived using KNIME analytics (KNIME, Zurich) transformation and fitting within Collaborative Drug Discovery (Collaborative Drug Discovery, USA) as described in 1.2.1. Ki values were derived from the geometric mean of the IC50 values using the Cheng-Prusoff transformation as described in 2.2.2. Data was visualized in GraphPad Prism 8.1.2 (GraphPad, USA) and reported as mean and standard deviation. Microsoft Office Excel 2012 (Redmond, WA) was used for calculation of mean and standard deviation.
IC50 data are reported in Table 3 for compounds in Table 1. In Table 3 below, According to the code, A represents a IC50 value of ≤0.1 μM, B represents a IC50 value >0.1 μM and ≤1 μM, C represents an IC50 value >1 μM.

CRBN/DDB1, sequence (Q96SW2 whole entry): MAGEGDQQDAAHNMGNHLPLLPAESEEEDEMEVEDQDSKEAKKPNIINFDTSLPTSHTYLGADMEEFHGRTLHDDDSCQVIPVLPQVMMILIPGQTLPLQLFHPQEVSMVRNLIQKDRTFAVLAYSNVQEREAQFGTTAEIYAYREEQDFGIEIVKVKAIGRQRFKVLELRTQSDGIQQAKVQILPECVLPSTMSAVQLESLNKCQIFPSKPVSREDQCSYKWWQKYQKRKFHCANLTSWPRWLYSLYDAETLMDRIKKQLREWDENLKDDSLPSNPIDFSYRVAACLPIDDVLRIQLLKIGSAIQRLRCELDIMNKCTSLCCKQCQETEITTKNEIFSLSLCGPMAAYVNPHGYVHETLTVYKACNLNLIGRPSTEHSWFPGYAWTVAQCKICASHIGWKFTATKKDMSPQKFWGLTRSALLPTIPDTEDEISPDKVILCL
CRBN/DDB1, sequence (Q16531 whole entry partner): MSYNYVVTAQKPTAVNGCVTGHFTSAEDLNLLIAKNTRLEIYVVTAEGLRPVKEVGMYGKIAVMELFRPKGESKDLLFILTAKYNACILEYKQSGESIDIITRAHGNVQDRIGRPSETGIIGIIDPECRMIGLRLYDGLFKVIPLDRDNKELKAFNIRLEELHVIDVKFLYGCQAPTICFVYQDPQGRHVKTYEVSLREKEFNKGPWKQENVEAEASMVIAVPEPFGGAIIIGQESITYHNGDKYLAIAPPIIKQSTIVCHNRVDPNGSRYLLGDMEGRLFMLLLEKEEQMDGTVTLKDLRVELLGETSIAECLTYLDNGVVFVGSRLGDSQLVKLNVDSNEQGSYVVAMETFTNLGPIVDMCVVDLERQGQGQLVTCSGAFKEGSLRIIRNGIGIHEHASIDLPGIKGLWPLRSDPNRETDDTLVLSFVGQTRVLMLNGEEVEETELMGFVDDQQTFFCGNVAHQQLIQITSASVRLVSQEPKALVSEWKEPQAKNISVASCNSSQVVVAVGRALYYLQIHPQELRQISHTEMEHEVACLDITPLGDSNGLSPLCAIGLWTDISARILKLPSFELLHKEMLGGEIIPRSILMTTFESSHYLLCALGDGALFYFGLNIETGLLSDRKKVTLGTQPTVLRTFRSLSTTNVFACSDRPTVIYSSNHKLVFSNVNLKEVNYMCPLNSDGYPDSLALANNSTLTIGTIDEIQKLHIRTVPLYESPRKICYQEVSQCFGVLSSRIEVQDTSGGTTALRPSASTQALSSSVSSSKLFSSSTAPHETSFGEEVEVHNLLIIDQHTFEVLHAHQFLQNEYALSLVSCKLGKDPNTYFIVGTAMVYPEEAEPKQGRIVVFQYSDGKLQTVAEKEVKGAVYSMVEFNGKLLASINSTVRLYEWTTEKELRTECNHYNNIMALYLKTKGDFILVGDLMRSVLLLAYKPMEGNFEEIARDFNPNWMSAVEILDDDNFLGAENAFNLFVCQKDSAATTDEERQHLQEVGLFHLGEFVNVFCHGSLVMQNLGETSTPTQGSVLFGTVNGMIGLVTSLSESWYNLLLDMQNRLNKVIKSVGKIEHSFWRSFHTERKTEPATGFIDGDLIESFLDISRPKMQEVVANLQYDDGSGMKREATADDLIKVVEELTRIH
T1 sequence (P48729 whole entry): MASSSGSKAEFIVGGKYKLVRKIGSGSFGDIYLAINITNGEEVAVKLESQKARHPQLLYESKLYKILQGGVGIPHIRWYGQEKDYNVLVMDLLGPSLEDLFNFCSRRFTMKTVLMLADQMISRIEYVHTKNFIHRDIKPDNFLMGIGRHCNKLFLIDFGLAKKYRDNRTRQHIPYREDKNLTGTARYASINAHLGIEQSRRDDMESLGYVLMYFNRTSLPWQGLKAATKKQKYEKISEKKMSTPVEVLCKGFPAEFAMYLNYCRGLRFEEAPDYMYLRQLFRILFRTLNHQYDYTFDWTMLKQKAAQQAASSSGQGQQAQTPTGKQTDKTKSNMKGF
T1 sequence (Q96SW2 whole entry): as the sequence (Q96SW2 whole entry) above
T1 sequence (Q16531 whole entry partner): as the sequence (Q16531 whole entry partner) above

Structure (SMILES) | DC50 (CK1α) [µM] | IC50 (CRBN/DDB1) [µM]
O=C1CCC(N2Cc3cc(N4CCN(c5ccc(C6CCC6)cc5)C4=O)ccc3C2=O)C(=O)N1 (centres unmarked) [Compound 131, 3-(5-(3-(4-cyclobutylphenyl)-2-oxoimidazolidin-1-yl)-1-oxoisoindolin-2-yl)piperidine-2,6-dione] | ≤ 0.1 | > 1
Cc1ccc(N2C(=O)N(c3ccc4c(c3)CN(C3CCC(=O)NC3=O)C4=O)C[C@H]2C(F)F)cc1 (stereo partly drawn) [Compound 173, 3-(5-((S)-4-(difluoromethyl)-2-oxo-3-(p-tolyl)imidazolidin-1-yl)-1-oxoisoindolin-2-yl)piperidine-2,6-dione] | > 1 | 0.1 to 1
O=C1CCC(N2Cc3cc(N4CCN(c5ccccn5)C4=O)ccc3C2=O)C(=O)N1 (centres unmarked) [Compound 105, 3-(1-oxo-5-(2-oxo-3-(pyridin-2-yl)imidazolidin-1-yl)isoindolin-2-yl)piperidine-2,6-dione] | ≤ 0.1 | > 1
O=C1CCC(N2Cc3cc(N4C[C@H](C(F)(F)F)N(c5ccccc5)C4=O)ccc3C2=O)C(=O)N1 (stereo partly drawn) [Compound 108, 3-(1-oxo-5-((R)-2-oxo-3-phenyl-4-(trifluoromethyl)imidazolidin-1-yl)isoindolin-2-yl)piperidine-2,6-dione] | > 1 | 0.1 to 1
O=C1CCC(N2Cc3cc(N4CCN(c5ccc6c(c5)OCC6)C4=O)ccc3C2=O)C(=O)N1 (centres unmarked) [Compound 127, 3-(5-(3-(2,3-dihydrobenzofuran-6-yl)-2-oxoimidazolidin-1-yl)-1-oxoisoindolin-2-yl)piperidine-2,6-dione] | ≤ 0.1 | > 1
Cc1ccccc1N1C(=O)N(c2ccc3c(c2)CN(C2CCC(=O)NC2=O)C3=O)C[C@H]1C (stereo partly drawn) [Compound 167, 3-(5-((R)-4-methyl-2-oxo-3-(o-tolyl)imidazolidin-1-yl)-1-oxoisoindolin-2-yl)piperidine-2,6-dione] | 0.1 to 1 | 0.1 to 1
CC(C)C(=O)c1ccc(N2CCN(c3ccc4c(c3)CN(C3CCC(=O)NC3=O)C4=O)C2=O)cc1 (centres unmarked) [Compound 181, 3-(5-(3-(4-isobutyrylphenyl)-2-oxoimidazolidin-1-yl)-1-oxoisoindolin-2-yl)piperidine-2,6-dione] | > 1 | ≤ 0.1
CC1CN(c2ccc3c(c2)CN(C2CCC(=O)NC2=O)C3=O)C(=O)N1c1ccc(C(F)(F)F)nc1 (centres unmarked) [Compound 121, 3-(5-(4-methyl-2-oxo-3-(6-(trifluoromethyl)pyridin-3-yl)imidazolidin-1-yl)-1-oxoisoindolin-2-yl)piperidine-2,6-dione] | ≤ 0.1 | 0.1 to 1
COC[C@@H]1CN(c2ccc3c(c2)CN(C2CCC(=O)NC2=O)C3=O)C(=O)N1c1ccc(C)cc1 (stereo partly drawn) [Compound 143, 3-(5-((S)-4-(methoxymethyl)-2-oxo-3-(p-tolyl)imidazolidin-1-yl)-1-oxoisoindolin-2-yl)piperidine-2,6-dione] | ≤ 0.1 | 0.1 to 1
C[C@@H]1CN(c2ccc3c(c2)CN(C2CCC(=O)NC2=O)C3=O)C(=O)N1C1CCCC1 (stereo partly drawn) [Compound 138, 3-(5-((R)-3-cyclopentyl-4-methyl-2-oxoimidazolidin-1-yl)-1-oxoisoindolin-2-yl)piperidine-2,6-dione] | ≤ 0.1 | 0.1 to 1
Cc1ccc(N2C(=O)N(c3ccc4c(c3)CN(C3CCC(=O)NC3=O)C4=O)C[C@@H]2C)cn1 (stereo partly drawn) [Compound 155, 3-(5-((S)-4-methyl-3-(6-methylpyridin-3-yl)-2-oxoimidazolidin-1-yl)-1-oxoisoindolin-2-yl)piperidine-2,6-dione] | 0.1 to 1 | 0.1 to 1
CN1CCN(c2ccc(N3CCN(c4ccc5c(c4)CN(C4CCC(=O)NC4=O)C5=O)C3=O)cc2)CC1 (centres unmarked) [Compound 163, 3-(5-(3-(4-(4-methylpiperazin-1-yl)phenyl)-2-oxoimidazolidin-1-yl)-1-oxoisoindolin-2-yl)piperidine-2,6-dione] | 0.1 to 1 | 0.1 to 1
O=C1CCC(N2Cc3cc(N4CCN(c5ccc(C6COC6)cc5)C4=O)ccc3C2=O)C(=O)N1 (centres unmarked) [Compound 146, 3-(5-(3-(4-(oxetan-3-yl)phenyl)-2-oxoimidazolidin-1-yl)-1-oxoisoindolin-2-yl)piperidine-2,6-dione] | ≤ 0.1 | 0.1 to 1
O=C1CCC(N2Cc3cc(N4CCN(c5ccc(C(F)(F)F)cc5)C4=O)ccc3C2=O)C(=O)N1 (centres unmarked) [Compound 112, 3-(1-oxo-5-(2-oxo-3-(4-(trifluoromethyl)phenyl)imidazolidin-1-yl)isoindolin-2-yl)piperidine-2,6-dione] | ≤ 0.1 | 0.1 to 1
O=C1CCC(N2Cc3cc(N4CCN(C5CCC5)C4=O)ccc3C2=O)C(=O)N1 (centres unmarked) [Compound 159, 3-(5-(3-cyclobutyl-2-oxoimidazolidin-1-yl)-1-oxoisoindolin-2-yl)piperidine-2,6-dione] | 0.1 to 1 | > 1
O=C1CCC(N2Cc3cc(N4CCN(c5cccc6c5CCO6)C4=O)ccc3C2=O)C(=O)N1 (centres unmarked) [Compound 140, 3-(5-(3-(2,3-dihydrobenzofuran-4-yl)-2-oxoimidazolidin-1-yl)-1-oxoisoindolin-2-yl)piperidine-2,6-dione] | ≤ 0.1 | 0.1 to 1
Cc1ccc(N2C(=O)N(c3ccc4c(c3)CN(C3CCC(=O)NC3=O)C4=O)C[C@H]2C)cc1 (stereo partly drawn) [Compound 130, 3-(5-((R)-4-methyl-2-oxo-3-(p-tolyl)imidazolidin-1-yl)-1-oxoisoindolin-2-yl) piperidine-2,6-dione] | ≤ 0.1 | 0.1 to 1
O=C1CCC(N2Cc3cc(N4CCN(C5CC6(COC6)C5)C4=O)ccc3C2=O)C(=O)N1 (centres unmarked) [Compound 171, 3-(1-oxo-5-(2-oxo-3-(2-oxaspiro[3.3]heptan-6-yl)imidazolidin-1-yl)isoindolin-2-yl)piperidine-2,6-dione] | 0.1 to 1 | 0.1 to 1
C[C@@H]1CN(c2ccc3c(c2)CN(C2CCC(=O)NC2=O)C3=O)C(=O)N1C1CCOC1 (stereo partly drawn) [Compound 161, 3-(5-((4R)-4-methyl-2-oxo-3-(tetrahydrofuran-3-yl)imidazolidin-1-yl)-1-oxoisoindolin-2-yl)piperidine-2,6-dione] | 0.1 to 1 | 0.1 to 1

From patent US20250115581A1, “SUBSTITUTED PIPERIDINES AS CK1A DEGRADERS” (Monte Rosa Therapeutics, Inc., priority 2022, published 2025)
